Experimental data as given in patent US10010607B2, “Method for preparing viral particles with cyclic dinucleotide and use of said particles for inducing immune response” (priority 2014, dated 2018).

Legend:
[1] = tested on: IFNβ promoter reporter; format: cell-based, human; settings: HEK293 cells transfected with 2 μg 2′-3′-cGAMP, 24 hours
[2] = tested on: HEK293 cells; format: cell-based, human; settings: for IFN response in target cells in the presence of inhibitor: HEK293 cells infected with HIV-1-GFP from cGAS expressing cells, inhibitor 5 μM 1 hour prior to infection; for IFN induction by HIV-1-GFP from inhibitor-treated cGAS-reconstituted producer cells: 20 μM GW4869 or 60 μM Ac-DEVD-CHO during virus preparation

Compound	IFN response in target cells in the presence of inhibitor [2]	IFN induction by HIV-1-GFP from inhibitor-treated cGAS-reconstituted producer cells [2]	also measured
Nc1nc2c(ncn2[C@@H]2O[C@@H]3COP(=O)(O)O[C@H]4[C@@H](O)[C@H](n5cnc6c(N)ncnc65)O[C@@H]4COP(=O)(O)O[C@@H]2[C@@H]3O)c(=O)[nH]1 [cGAMP, 2′-3′-cyclic GMP-AMP]			IFN induction in response to cGAMP (IFNβ promoter reporter) [1]: induce IFN
Cc1nnc(C(=O)NC(C)(C)c2nc(C(=O)NCc3ccc(F)cc3)c(O)c(=O)n2C)o1 [raltegravir]	independent		
Ac-DEVD-CHO		did not diminish IFN induction	
O=C(/C=C/c1ccc(/C=C/C(=O)Nc2ccc(C3=NCCN3)cc2)cc1)Nc1ccc(C2=NCCN2)cc1 [GW4869]		did not diminish IFN induction	
Cc1ccnc2c1NC(=O)c1cccnc1N2C1CC1 [nevirapine]	independent		
